{"source": "paper PMC12903969", "about": "“Discovery of a Novel and Potent Kir4.1 Inhibitor as a Safe and Rapid‐Onset Antidepressant Agent in Mice” (Advanced Science, 2025)", "key": {"Kir4.1": {"biological_target": "T1, Kir4.1 (Homo sapiens, UniProt P78508)", "T1 construct": "host or cells: CHO-K1", "T1 sequence (P78508 1-379)": "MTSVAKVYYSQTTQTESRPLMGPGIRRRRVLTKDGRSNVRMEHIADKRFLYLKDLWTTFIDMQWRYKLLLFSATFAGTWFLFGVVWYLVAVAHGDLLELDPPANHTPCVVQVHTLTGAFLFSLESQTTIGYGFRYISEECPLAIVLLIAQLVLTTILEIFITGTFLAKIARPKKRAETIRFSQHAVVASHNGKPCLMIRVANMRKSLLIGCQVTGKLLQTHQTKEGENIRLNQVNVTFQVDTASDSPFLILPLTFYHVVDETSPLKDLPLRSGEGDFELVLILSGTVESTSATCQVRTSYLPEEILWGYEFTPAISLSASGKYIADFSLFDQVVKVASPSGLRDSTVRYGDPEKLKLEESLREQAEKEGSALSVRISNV", "experiment": "Whole-cell patch clamp, Kir4.1 currents in transfected CHO-K1 cells", "assay_type": "cell-based", "conditions": "for inhibition at 1 µM: CHO-K1, 1 μM; for inhibition at 10 µM: CHO-K1, 10 μM; for IC50: whole-cell patch clamp", "method_in_brief": "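Transiently transfected CHO-K1 cells (with EGFP), whole-cell voltage clamp at room temperature; pipette 140 mM KCl pH 7.2, bath 140 mM NaCl/5 mM KCl pH 7.4. Currents evoked from −80 mV holding by a step to −120 mV then ramp to +50 mV; compounds applied by perfusion.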"}, "Kir1.1": {"biological_target": "T2, Kir1.1 (Homo sapiens, UniProt P48048)", "T2 construct": "host or cells: CHO-K1", "experiment": "Whole-cell patch clamp, Kir1.1", "assay_type": "cell-based", "conditions": "mean ± SEM", "protocol": "(§1) Plasmids encoding WT human potassium channels Kir1.1, Kir2.1, Kir2.2, Kir4.1, and Kir4.2 were obtained from the Beijing Genomics Institute. All point mutations were constructed using the QuickChange II Site‐Directed Mutagenesis Kit (Stratagene) and subsequently verified by sequencing.\nCHO‐K1 cells were maintained in DMEM/F12 growth medium containing 10% fetal bovine serum. Plasmids encoding the target genes (3600 ng) and enhanced green fluorescent protein (400 ng) were cotransfected into cells using Lipofectamine 2000 (Invitrogen) in accordance with the manufacturer's instructions. Cells were seeded onto poly‐d‐lysine (PDL)‐coated glass coverslips 1 h prior to electrophysiological recordings. […]\nWhole‐cell patch‐clamp recordings were obtained either in transiently transfected CHO‐K1 cells or in primary cultured astrocytes at room temperature using standard patch‐clamp techniques with an Axopatch‐700B amplifier (Axon Instruments). […] Macroscopic currents generated by expressed potassium channels were recorded under the voltage‐clamp conditions with an internal pipette solution composed of (in mM): 140 KCl, 5 NaCl, 1 CaCl2, 1 MgCl2, 10 HEPES, and 10 EGTA, pH 7.2 adjusted with KOH. […] Astrocytic resting membrane potentials were recorded under current‐clamp conditions (I = 0 pA) using standard internal and external solutions, determined immediately after achieving whole‐cell mode."}, "Kir4.1 I159A": {"biological_target": "T3, Kir4.1 I159A (Homo sapiens, UniProt P78508, I159A)", "T3 construct": "expressed in transfected cells; host or cells: CHO-K1", "T3 sequence (P78508 1-379 I159A)": "T1 sequence (P78508 1-379) with I159A", "experiment": "Whole-cell patch clamp, Kir4.1 point mutant I159A", "assay_type": "cell-based", "protocol": "as §1\nCHO‐K1 cells were maintained in DMEM/F12 growth medium containing 10% fetal bovine serum. Plasmids encoding the target genes (3600 ng) and enhanced green fluorescent protein (400 ng) were cotransfected into cells using Lipofectamine 2000 (Invitrogen) in accordance with the manufacturer's instructions. Cells were seeded onto poly‐d‐lysine (PDL)‐coated glass coverslips 1 h prior to electrophysiological recordings. All cells were cultured under standard conditions of 5% CO2 at 37 °C.\n(§2) Whole‐cell patch‐clamp recordings were obtained either in transiently transfected CHO‐K1 cells or in primary cultured astrocytes at room temperature using standard patch‐clamp techniques with an Axopatch‐700B amplifier (Axon Instruments). The signals were filtered at 2 kHz and sampled at 20 kHz using the Digidata 1440A interface (Axon Instruments). The resistance of borosilicate glass pipettes was typically 2–4 MΩ when filled with the internal solution. Drug application was facilitated using a BPS perfusion system (ALA Scientific Instruments). Macroscopic currents generated by expressed potassium channels were recorded under the voltage‐clamp conditions with an internal pipette solution composed of (in mM): 140 KCl, 5 NaCl, 1 CaCl2, 1 MgCl2, 10 HEPES, and 10 EGTA, pH 7.2 adjusted with KOH. The external solution contained (in mM): 140 NaCl, 5 KCl, 2 CaCl2, 1 MgCl2, 10 glucose, and 10 HEPES, pH 7.4 adjusted with NaOH. Currents were elicited with a hyperpolarized voltage at −120 mV from the holding potential of −80 mV, followed by a ramp voltage depolarizing to +50 mV. Astrocytic resting membrane potentials were recorded under current‐clamp conditions (I = 0 pA) using standard internal and external solutions, determined immediately after achieving whole‐cell mode."}, "KCNQ2": {"biological_target": "KCNQ2 (Homo sapiens, UniProt O43526)", "experiment": "KCNQ2 channel inhibition", "assay_type": "cell-based", "design": "KCNQ2 inhibition, single recordings: unit not given here", "from_the_text": "as §2"}, "OBX C57BL/6J mice": {"tested_on": "OBX C57BL/6J mice", "experiment": "Olfactory bulbectomy (OBX) model, open field test", "assay_type": "in vivo", "conditions": "30 mg kg−1, within 1 h", "from_the_text": "Male C57BL/6J mice (8–12 weeks old) were anesthetized by intraperitoneal injection of tiletamine‐zolazepam‐xylazine. Following confirmation of anesthesia, a midline scalp incision was made to expose the skull, and the bregma was identified as the anatomical reference point. Using a stereotaxic frame (Stoelting), bilateral olfactory bulbs (4 mm anterior to the bregma) were aspirated through a 1‐mm burr hole drilled with a dental drill. Hemostatic sponges were applied to the burr holes, and the incision was closed with 5‐0 silk sutures. The sham‐operated controls underwent identical procedures without bulb aspiration. Prophylactic antibiotic therapy (25% ampicillin, […], i.p.) was administered daily for three consecutive days post‐surgery. The animals were monitored during a 14‐day recovery period prior to behavioral assessments. After euthanasia, successful bulbectomy was verified by gross anatomical inspection, and habenular tissues were dissected on ice for subsequent molecular analyses.\nThis test was used to assess anxiety‐related behaviors in the mice. C57BL/6J mice were individually habituated to a 40 × 40 × 40 cm^3 open field arena under dim light for […]. Locomotor activity during the final 5 min was digitally recorded (30 fps) and analyzed using Tracking Master (Future Life Science (Shanghai) Co., Ltd., Shanghai, China). […]"}}, "note": "Substitutions are numbered along the chain they refer to. Values joined by “and” are separate entries in the source; they are usually repeats but may differ in a detail not shown here. Identical values can stand only once. Like-named read-outs stand apart in the source and are kept apart here.", "data": [{"smiles": "c1ccc2c(c1)oc1ccc(Nc3ccnc(NCCCN4CCOCC4)n3)cc12", "note": "[JX3212, N^4-(dibenzo[b,d]furan-2-yl)-N^2-(3-morpholinopropyl)pyrimidine-2,4-diamine]", "values": [{"measurement": "inhibition at 0.5 µM", "setting": "Kir4.1; CHO-K1, 0.5 μM, +50 mV, read-out: Kir4.1 Inhibition ± SD (%) at 0.5 μM, +50 mV", "value": "82.8 ± 1.51", "unit": "%"}, {"measurement": "inhibition at 0.5 µM", "setting": "Kir4.1; CHO-K1, 0.5 μM, -120 mV, read-out: Kir4.1 Inhibition ± SD (%) at 0.5 μM, -120 mV", "value": "73.2 ± 3.59", "unit": "%"}, {"measurement": "inhibition at 0.5 µM", "setting": "Kir4.1; CHO-K1, 0.5 µM, read-out: Kir4.1 inhibition at 0.5 µM", "value": "> 60", "unit": "%"}, {"measurement": "inhibition at 1 µM", "setting": "Kir4.1; +50 mV, read-out: Kir4.1 Inhibition ± SD (%) at 1 μM, +50 mV", "value": "82.5 ± 5.51", "unit": "%"}, {"measurement": "inhibition at 1 µM", "setting": "Kir4.1; -120 mV, read-out: Kir4.1 Inhibition ± SD (%) at 1 μM, -120 mV", "value": "84.5 ± 3.09", "unit": "%"}, {"measurement": "inhibition at 3 µM", "setting": "Kir4.1; CHO-K1, 3 µM, mean ± SEM, read-out: current inhibition, Kir4.1 WT", "value": "92.4 ± 2.25", "unit": "%"}, {"measurement": "inhibition at 10 µM", "setting": "Kir4.1; +50 mV, read-out: Kir4.1 Inhibition ± SD (%) at 10 μM, +50 mV", "value": "96 ± 1.52", "unit": "%"}, {"measurement": "inhibition at 10 µM", "setting": "Kir4.1; -120 mV, read-out: Kir4.1 Inhibition ± SD (%) at 10 μM, -120 mV", "value": "97.3 ± 1.01", "unit": "%"}, {"measurement": "inhibition at 3 µM", "setting": "Kir4.1; CHO-K1, JX3212 3 µM (Fig 2A), read-out: Kir isoforms: Kir4.1 inhibition, single recordings", "value": 94.9, "unit": "%"}, {"measurement": "inhibition at 3 µM", "setting": "Kir4.1; CHO-K1, JX3212 3 µM (Fig 2D), read-out: Mutation: Kir4.1 WT inhibition, single recordings", "value": 92.1, "unit": "%"}, {"measurement": "Kir isoforms: Kir4.1 inhibition, single recordings", "setting": "Kir4.1; JX3212 3 µM (Fig 2A)", "value": "94.131 and 95.7029"}, {"measurement": "Mutation: Kir4.1 WT inhibition, single recordings", "setting": "Kir4.1; JX3212 3 µM (Fig 2D)", "value": "94.7739 and 90.2954"}, {"measurement": "improvement in target activity over lead EHop-016", "setting": "Kir4.1; Kir4.1 IC50 ratio", "value": 2.6, "unit": "fold"}, {"measurement": "IC50", "setting": "Kir4.1; CHO cells transiently expressing Kir4.1, +50 mV, read-out: IC50 for Kir4.1 inhibition (+50 mV, outward currents)", "value": 0.19, "unit": "µM"}, {"measurement": "IC50", "setting": "Kir4.1; CHO cells transiently expressing Kir4.1, −120 mV, read-out: IC50 for Kir4.1 inhibition (−120 mV, inward currents)", "value": 0.28, "unit": "µM"}, {"measurement": "inhibition at 3 µM", "setting": "Kir1.1", "value": "17.8 ± 8.26", "unit": "%"}, {"measurement": "inhibition at 3 µM", "setting": "Kir4.1 I159A; 3 µM, mean ± SEM, read-out: current inhibition, Kir4.1 I159A", "value": "43.9 ± 6.15", "unit": "%"}, {"measurement": "Mutation: I159A inhibition, single recordings", "setting": "Kir4.1 I159A; JX3212 3 µM (Fig 2D)", "value": "52.8569 and 40.7357 and 46.4245 and 36.569"}, {"measurement": "inhibition at 3 µM", "setting": "Kir4.1 I159A; JX3212 3 µM (Fig 2D), read-out: Mutation: I159A inhibition, single recordings", "value": 42.9, "unit": "%"}, {"measurement": "IC50", "setting": "KCNQ2", "value": 5.99, "unit": "µM"}, {"measurement": "KCNQ2 inhibition, single recordings", "setting": "KCNQ2; concentration 3", "value": "22.0588 and 21.8921 and 13.4681"}, {"measurement": "KCNQ2 inhibition, single recordings", "setting": "KCNQ2; concentration 10", "value": "79.5346 and 67.5255 and 78.5615"}, {"measurement": "KCNQ2 inhibition, single recordings", "setting": "KCNQ2; concentration 30 (unit not given)", "value": "97.6879 and 84.1578 and 95.4545"}, {"measurement": "OBX: percentage of distance traveled in the center (in words)", "setting": "OBX C57BL/6J mice", "value": "increased percentage of distance traveled in the center"}, {"measurement": "OBX: total distance traveled (in words)", "setting": "OBX C57BL/6J mice", "value": "did not affect the distance traveled"}]}]}
